42 compounds from patent publication US8883826B2, “Alkynyl derivatives as modulators of metabotropic glutamate receptors” (Addex Pharma SA, priority 2004, dated 2014) can be followed below.

pIC50: −log10 of the molar value.

T1 sequence (P31424 21-1203): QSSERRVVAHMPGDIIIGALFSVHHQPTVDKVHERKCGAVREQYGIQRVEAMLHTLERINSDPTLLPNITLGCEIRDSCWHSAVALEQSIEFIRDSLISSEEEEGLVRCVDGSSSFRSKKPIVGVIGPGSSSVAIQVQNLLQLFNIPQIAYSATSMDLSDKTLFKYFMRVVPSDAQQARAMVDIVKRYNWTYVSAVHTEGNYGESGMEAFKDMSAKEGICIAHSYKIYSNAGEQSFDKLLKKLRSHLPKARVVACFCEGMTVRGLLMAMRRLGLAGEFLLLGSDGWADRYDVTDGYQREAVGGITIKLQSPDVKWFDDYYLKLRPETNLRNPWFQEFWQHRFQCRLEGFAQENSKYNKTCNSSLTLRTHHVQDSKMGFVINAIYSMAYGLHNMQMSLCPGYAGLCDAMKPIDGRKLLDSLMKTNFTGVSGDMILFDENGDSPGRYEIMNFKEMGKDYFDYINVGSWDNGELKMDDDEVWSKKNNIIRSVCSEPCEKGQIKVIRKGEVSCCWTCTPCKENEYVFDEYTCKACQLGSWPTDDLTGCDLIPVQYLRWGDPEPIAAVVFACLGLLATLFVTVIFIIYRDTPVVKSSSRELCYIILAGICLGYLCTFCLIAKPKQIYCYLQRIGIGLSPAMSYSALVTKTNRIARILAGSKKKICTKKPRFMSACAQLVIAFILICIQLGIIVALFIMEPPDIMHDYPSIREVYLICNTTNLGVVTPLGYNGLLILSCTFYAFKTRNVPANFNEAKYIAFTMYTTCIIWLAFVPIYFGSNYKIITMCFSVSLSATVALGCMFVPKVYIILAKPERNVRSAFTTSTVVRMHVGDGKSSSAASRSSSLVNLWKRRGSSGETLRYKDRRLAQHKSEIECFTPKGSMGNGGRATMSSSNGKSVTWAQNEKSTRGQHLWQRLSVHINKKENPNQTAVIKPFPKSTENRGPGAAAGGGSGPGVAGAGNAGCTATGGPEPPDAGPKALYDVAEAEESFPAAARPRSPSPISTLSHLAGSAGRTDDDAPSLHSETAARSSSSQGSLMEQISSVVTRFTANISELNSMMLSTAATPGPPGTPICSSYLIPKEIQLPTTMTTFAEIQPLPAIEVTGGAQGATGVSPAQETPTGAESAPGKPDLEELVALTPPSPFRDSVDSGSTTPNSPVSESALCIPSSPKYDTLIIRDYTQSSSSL

This assay addresses T1, mGluR5 (Rattus norvegicus, UniProt P31424).
T1 construct: tissue Charles River Laboratories; host or cells: rat brain cortex membranes (Sprague-Dawley)
In words: mGluR5 binding assay ([3H]-MPEP radioligand competition). As to conditions: competition with 3 nM [3H]-MPEP, rat brain cortical membranes, 1 h at 4 °C; mean of at least three independent experiments in duplicate. An excerpt: Activity of compounds of the invention was examined following a radioligand binding technique using whole rat brain and tritiated 2-methyl-6-(phenylethynyl)-pyridine ([^3H]-MPEP) as a ligand following similar methods than those described in F. Gasparini et al. Bioorg. Med. Chem. Lett. 2002, 12, 407-409 and in J. F. Anderson et al. J. Pharmacol. Exp. Ther. 2002, 303, 3, 1044-1051.
Cortices were dissected out from brains of 200-300 g Sprague-Dawley rats (Charles River Laboratories, L'Arbresle, France). Tissues were homogenized in 10 volumes (vol/wt) of ice-cold 50 mM Hepes-NaOH (pH 7.4) using a Polytron disrupter (Kinematica AG, Luzern, Switzerland) and centrifuged for 30 min at 40,000 g. (4° C.). The supernatant was discarded and the pellet washed twice by resuspension in 10 volumes 50 mM HEPES-NaOH. Membranes were then collected by centrifugation and washed before final resuspension in 10 volumes of 20 mM HEPES-NaOH, pH 7.4. Protein concentration was determined by the Bradford method (Bio-Rad protein assay, Reinach, Switzerland) with bovine serum albumin as standard.
[^3H]-MPEP Binding Experiments:
Membranes were thawed and resuspended in binding buffer containing 20 mM HEPES-NaOH, 3 mM MgCl2, 3 mM CaCl2, 100 mM NaCl, pH 7.4. Competition studies were carried out by incubating for 1 h at 4° C.: 3 nM [^3H]-MPEP (39 Ci/mmol, Tocris, Cookson Ltd, Bristol, U.K.), 50 μg membrane and a concentration range of 0.003 nM-30 μM of compounds, for a total reaction volume of 300 μl. The non-specific binding was defined using 30 μM MPEP. Reaction was terminated by rapid filtration over glass-fiber filter plates (Unifilter 96-well GF/B filter plates, Perkin-Elmer, Schwerzenbach, Switzerland) using 4×400 μl ice cold buffer using cell harvester (Filtermate, Perkin-Elmer, Downers Grove, USA). Radioactivity was determined by liquid scintillation spectrometry using a 96-well plate reader (TopCount, Perkin-Elmer, Downers Grove, USA).
The inhibition curves were generated using the Prism GraphPad program (Graph Pad Software Inc, San Diego, USA). IC50 determinations were made from data obtained from 8 point-concentration response curves using a non linear regression analysis.
The table below represents the mean of IC50 obtained from at least three independent experiments of selected molecules performed in duplicate.
By pIC50 is commonly meant the negative decadic logarithm of the IC50, by convention in mol/L. For `Cc1cccc2sc(CCC#Cc3ccccn3)nc12` [Example 103, 4-Methyl-2-(4-(pyridin-2-yl)but-3-ynyl)benzo[d]thiazole], the negative logarithm of the IC50 (pIC50) was > 7.30.

Take `Fc1ccc2sc(CCC#Cc3ccccn3)nc2c1` [Example 104, 5-Fluoro-2-(4-(pyridin-2-yl)but-3-ynyl)benzo[d]thiazole]: the pIC50 was > 7.30.

On to `Clc1cccc2sc(CCC#Cc3ccccn3)nc12` [Example 105, 4-Chloro-2-(4-(pyridin-2-yl)but-3-ynyl)benzo[d]thiazole], for which the pIC50 was > 7.30.

In the case of `Cn1c(CCC#Cc2ccccn2)nc2ccccc21` [Example 107, 1-Methyl-2-(4-(pyridin-2-yl)but-3-ynyl)-1H-benzo[d]imidazole], the pIC50 is > 6.30.

On to `C(#Cc1ccccn1)CCn1cc2ccccc2n1` [Example 108, 2-(4-(Pyridin-2-yl)but-3-ynyl)-2H-indazole], for which the pIC50 was > 6.30.

In the case of `C(#Cc1ccccn1)CCn1nc2ccccc2n1` [Example 109, 2-(4-(Pyridin-2-yl)but-3-ynyl)-2H-benzo[d][1,2,3]triazole], the pIC50 is > 6.30.

Regarding `C(#Cc1ccccn1)CCc1cc(-c2ccccc2)no1` [Example 111, 2-(4-(3-Phenylisoxazol-5-yl)but-1-ynyl)pyridine], the pIC50 was > 5.00.

In the case of `Cc1nc(C#CCCc2nc3ccccc3s2)cs1` [Example 112, 2-(4-(2-Methylthiazol-4-yl)but-3-ynyl)benzo[d]thiazole], the pIC50 was > 7.30.

Take `Fc1ccc(C#CCCc2nc3ccccc3s2)nc1` [Example 113, 2-(4-(5-Fluoropyridin-2-yl)but-3-ynyl)benzo[d]thiazole]: the negative logarithm of the IC50 (pIC50) was > 5.00.

In the case of `Cc1cccc(C#CCCc2nc3ccccc3s2)n1` [Example 114, 2-(4-(6-Methylpyridin-2-yl)but-3-ynyl)benzo[d]thiazole], the pIC50 is > 7.30.

`Fc1ccc(Cl)c2sc(CCC#Cc3ccccn3)nc12` [Example 116, 7-Chloro-4-fluoro-2-(4-(pyridin-2-yl)but-3-ynyl)benzo[d]thiazole]: the pIC50 was > 7.30.

As for `Fc1cccc(C#CCCc2nc3ccccc3s2)n1` [Example 117, 2-(4-(6-Fluoropyridin-2-yl)but-3-ynyl)benzo[d]thiazole], the pIC50 is > 5.00.

For `C(#Cc1ccccn1)CCc1ccc2ccccc2n1` [Example 118, 2-(4-(Pyridin-2-yl)but-3-ynyl)quinoline], the pIC50 is > 6.30.

As for `Cn1ccc(C#CCCc2nc3ccccc3s2)n1` [Example 121, 2-(4-(1-Methyl-1H-pyrazol-3-yl)but-3-ynyl)benzo[d]thiazole], the negative-log IC50 (pIC50) was > 5.00.

In the case of `C(#Cc1ccccn1)CCn1cc(-c2ccccc2)cn1` [Example 122, 2-(4-(4-Phenyl-1H-pyrazol-1-yl)but-1-ynyl)pyridine], the pIC50 is > 5.00.

`Clc1cccc2cn(CCC#Cc3ccccn3)nc12` [Example 123, 7-Chloro-2-(4-(pyridin-2-yl)but-3-ynyl)-2H-indazole]: the pIC50 is > 5.00.

Turning to `C(#Cc1ccccn1)CCCCn1nc2ccccc2n1` [Example 124, 2-(6-(Pyridin-2-yl)hex-5-ynyl)-2H-benzo[d][1,2,3]triazole], the negative logarithm of the IC50 (pIC50) was > 5.00.

In the case of `Fc1ccc2nn(CCC#Cc3ccccn3)nc2c1` [Example 127, 5-Fluoro-2-(4-(pyridin-2-yl)but-3-ynyl)-2H-benzo[d][1,2,3]triazole], the pIC50 was > 5.00.

For `Cc1cccc(C#CCCc2ccc3ccccc3n2)n1` [Example 128, 2-(4-(6-Methylpyridin-2-yl)but-3-ynyl)quinoline], the pIC50 is > 7.30.

With `FCc1cccc(C#CCCn2cc3ccccc3n2)n1` [Example 133, 2-(4-(6-(Fluoromethyl)pyridin-2-yl)but-3-ynyl)-2H-indazole], the pIC50 is > 5.00.

As for `Fc1cc(F)c2nn(CCC#Cc3ccccn3)nc2c1` [Example 135, 4,6-Difluoro-2-(4-(pyridin-2-yl)but-3-ynyl)-2H-benzo[d][1,2,3]triazole], the pIC50 is > 5.00.

Turning to `Fc1ccc2nn(CCC#Cc3ccccn3)nc2c1F` [Example 136, 4,5-Difluoro-2-(4-(pyridin-2-yl)but-3-ynyl)-2H-benzo[d][1,2,3]triazole], the pIC50 was > 5.00.

As to `Cc1cccc(C#CCCn2nc3ccccc3n2)n1` [Example 137, 2-(4-(6-Methylpyridin-2-yl)but-3-ynyl)-2H-benzo[d][1,2,3]triazole], the pIC50 is > 7.30.

Regarding `Fc1cccnc1C#CCCn1nc2ccccc2n1` [Example 138, 2-(4-(3-Fluoropyridin-2-yl)but-3-ynyl)-2H-benzo[d][1,2,3]triazole], the negative logarithm of the IC50 (pIC50) is > 5.00.

In the case of `FCc1cccc(C#CCCn2nc3ccc(F)cc3n2)n1` [Example 139, 5-Fluoro-2-(4-(6-(fluoromethyl)pyridin-2-yl)but-3-ynyl)-2H-benzo[d][1,2,3]triazole], the pIC50 was > 7.30.

As for `Fc1ccc(-c2cnn(CCC#Cc3ccccn3)c2)cc1` [Example 140, 2-(4-(4-(4-Fluorophenyl)-1H-pyrazol-1-yl)but-1-ynyl)pyridine], the pIC50 was > 5.00.

Turning to `Cc1nc(C#CCCn2nc3ccccc3n2)cs1` [Example 141, 2-(4-(2-Methylthiazol-4-yl)but-3-ynyl)-2H-benzo[d][1,2,3]triazole], the pIC50 was > 7.30.

On to `Cc1ccccc1-c1cnn(CCC#Cc2ccccn2)c1` [Example 142, 2-(4-(4-o-Tolyl-1H-pyrazol-1-yl)but-1-ynyl)pyridine], for which the negative logarithm of the IC50 (pIC50) is > 5.00.

With `Cc1ccccc1-c1cnn(CCC#Cc2cccc(CF)n2)c1` [Example 143, 2-(Fluoromethyl)-6-(4-(4-o-tolyl-1H-pyrazol-1-yl)but-1-ynyl)pyridine], the pIC50 was > 5.00.

For `FCc1cccc(C#CCCn2cc(-c3ccc(F)cc3)cn2)n1` [Example 144, 2-(Fluoromethyl)-6-(4-(4-(4-fluorophenyl)-1H-pyrazol-1-yl)but-1-ynyl)pyridine], the pIC50 is > 5.00.

As to `FCc1cccc(C#CCCc2cnc3cc(F)ccc3n2)n1` [Example 145, 6-Fluoro-2-(4-(6-(fluoromethyl)pyridin-2-yl)but-3-ynyl)quinoxaline], the pIC50 was > 7.30.

`Clc1cccc2nn(CCC#Cc3ccccn3)nc12` [Example 146, 4-Chloro-2-(4-(pyridin-2-yl)but-3-ynyl)-2H-benzo[d][1,2,3]triazole]: the pIC50 was > 7.30.

For the compound `FCc1cccc(C#CCCn2nc3cccc(Cl)c3n2)n1` [Example 147, 4-Chloro-2-(4-(6-(fluoromethyl)pyridin-2-yl)but-3-ynyl)-2H-benzo[d][1,2,3]triazole], the pIC50 was > 7.30.

Turning to `FCc1cccc(C#CCCn2cc3c(F)cccc3n2)n1` [Example 149, 4-Fluoro-2-(4-(6-(fluoromethyl)pyridin-2-yl)but-3-ynyl)-2H-indazole], the pIC50 is > 7.30.

Take `Clc1cccc2nn(CCC#Cc3ccccn3)cc12` [Example 150, 4-Chloro-2-(4-(pyridin-2-yl)but-3-ynyl)-2H-indazole]: the negative logarithm of the IC50 (pIC50) is > 7.30.

For the compound `FCc1cccc(C#CCCn2cc3ccc(F)cc3n2)n1` [Example 151, 6-Fluoro-2-(4-(6-(fluoromethyl)pyridin-2-yl)but-3-ynyl)-2H-indazole], the pIC50 was > 7.30.

In the case of `FCc1cccc(C#CCCn2cc3c(Cl)cccc3n2)n1` [Example 152, 4-Chloro-2-(4-(6-(fluoromethyl)pyridin-2-yl)but-3-ynyl)-2H-indazole], the pIC50 was > 7.30.

Turning to `FCc1cccc(C#CCCn2cc3cccc(F)c3n2)n1` [Example 155, 7-Fluoro-2-(4-(6-(fluoromethyl)pyridin-2-yl)but-3-ynyl)-2H-indazole], the pIC50 is > 7.30.

For `Cn1ccc(C#CCCn2nc3cccc(Cl)c3n2)n1` [Example 156, 4-Chloro-2-(4-(1-methyl-1H-pyrazol-3-yl)but-3-ynyl)-2H-benzo[d][1,2,3]triazole], the pIC50 was > 7.30.

In the case of `Nc1cccc(C#CCCn2nc3cc(F)cc(F)c3n2)n1` [Example 157, 6-(4-(4,6-Difluoro-2H-benzo[d][1,2,3]triazol-2-yl)but-1-ynyl)pyridin-2-amine], the pIC50 was > 5.00.

Regarding `C(#Cc1ccccn1)CCn1ccc(-c2ccccc2)n1` [Example 159, 2-(4-(3-Phenyl-1H-pyrazol-1-yl)but-1-ynyl)pyridine], the pIC50 was > 5.00.

Take `O=[N+]([O-])c1cccc2nn(CCC#Cc3ccccn3)nc12` [Example 160, 4-Nitro-2-(4-(pyridin-2-yl)but-3-ynyl)-2H-benzo[d][1,2,3]triazole]: the pIC50 was > 5.00.
